Assay results published in article PMC6480306 (General and comparative endocrinology, 2018).

Target: T1, zebrafish mPRα (membrane progestin receptor alpha, Paqr7) (Danio rerio, UniProt Q801G2)
T1 sequence (Q801G2 1-354): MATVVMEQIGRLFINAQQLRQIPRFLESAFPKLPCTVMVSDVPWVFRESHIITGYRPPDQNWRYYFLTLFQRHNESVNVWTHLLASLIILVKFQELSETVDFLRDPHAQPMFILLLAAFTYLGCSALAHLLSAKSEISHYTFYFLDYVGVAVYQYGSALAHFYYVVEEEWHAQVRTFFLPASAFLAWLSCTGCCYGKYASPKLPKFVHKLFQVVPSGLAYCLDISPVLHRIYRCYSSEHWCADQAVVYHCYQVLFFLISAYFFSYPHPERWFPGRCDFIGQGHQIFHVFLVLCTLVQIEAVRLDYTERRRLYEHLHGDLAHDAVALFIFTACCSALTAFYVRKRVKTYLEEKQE
Test: [3H]-DHP competitive radioligand binding, filtration assay

SMILES	IC50 [nM]
C=C[C@]12CCC(=O)C=C1CC[C@H]1[C@@H]3CC[C@H](C(C)=O)[C@@]3(C)CC[C@@H]12 [02–0, l0-ethenyl-l9-norprogesterone]	2000
C[C@@H](O)[C@@]1(O)CC[C@H]2[C@@H]3CCC4=CC(=O)CC[C@]4(C)[C@H]3CC[C@@]21C [DHP, 17, 20β-dihydroxy-4-pregnen-3-one]	~100
